Results: paper PMC3726261 (Cancer, 2012)
Entries after “also recorded” stand apart in the source; their conditions may differ. Marks after values point to notes of the source that are not given here.

Columns and labels:
[1] = test system: patients with advanced solid malignancies; assay: Phase 1 dose-escalation study: safety, treatment-emergent adverse events; assay type: in vivo; conditions: for Abdominal distension (related TEAE) / Anemia (related TEAE) / Anorexia (related TEAE) / At least 1 related TEAE / Chest discomfort (related TEAE) / Constipation (related TEAE) / Cough (related TEAE) / Dyspepsia (related TEAE) / Dyspnea (related TEAE) / Edema (related TEAE) / Face edema (related TEAE) / Fatigue (related TEAE) / Fluid retention (related TEAE) / Increased appetite (related TEAE) / Insomnia (related TEAE) / Muscle spasms (related TEAE) / Myalgia (related TEAE) / Nausea (related TEAE) / Peripheral edema (related TEAE) / Pleural effusion (related TEAE) / Rash (related TEAE) / Vomiting (related TEAE) / Weight increase (related TEAE): N = 31 patients
PPAR response element = conditions: cited from earlier work
[2] = Grade 3 (dose-limiting toxicity)
[3] = Patient 20, 0.75 mg twice daily, by cycle 3, day 1, CTCAE grade 4
[4] = PPAR response element activation

Cc1cc(Oc2ccc3nc(COc4ccc(CC5SC(=O)NC5=O)cc4)n(C)c3c2)cc(C)c1N (stereo not shown) [Efatutazone]
Dose-limiting toxicities ([1]; 0.10-, 0.25-, and 1.15-mg cohorts, not dose dependent): Three episodes of dose-limiting toxicities; also recorded: Three DLTs related to fluid retention | Patients with at least 1 treatment-related AE ([1]; 31 patients): 100% | Grade ≥4 edema ([1]; 31 treated patients): No patient | Abdominal distension (related TEAE) ([1]; Grade 1): 1 (3.2) No. (%) | Anemia (related TEAE) ([1]; Grade 1): 5 (16.1) No. (%) | Anorexia (related TEAE) ([1]; Grade 1): 3 (9.7) No. (%) | At least 1 related TEAE ([1]; Grade 1): 13 (41.9) No. (%) | Chest discomfort (related TEAE) ([1]; Grade 1): 1 (3.2) No. (%) | Constipation (related TEAE) ([1]; Grade 1): 2 (6.5) No. (%) | Cough (related TEAE) ([1]; Grade 1): 3 (9.7) No. (%) | Dyspepsia (related TEAE) ([1]; Grade 1): 2 (6.5) No. (%) | Dyspnea (related TEAE) ([1]; Grade 1): 4 (12.9) No. (%) | Edema (related TEAE) ([1]; Grade 1): 1 (3.2) No. (%) | Face edema (related TEAE) ([1]; Grade 1): 2 (6.5) No. (%) | Fatigue (related TEAE) ([1]; Grade 1): 10 (32.3) No. (%) | Fluid retention (related TEAE) ([1]; Grade 1): 2 (6.5) No. (%) | Increased appetite (related TEAE) ([1]; Grade 1): 3 (9.7) No. (%) | Insomnia (related TEAE) ([1]; Grade 1): 1 (3.2) No. (%) | Muscle spasms (related TEAE) ([1]; Grade 1): 1 (3.2) No. (%) | Myalgia (related TEAE) ([1]; Grade 1): 2 (6.5) No. (%) | Nausea (related TEAE) ([1]; Grade 1): 5 (16.1) No. (%) | Peripheral edema (related TEAE) ([1]; Grade 1): 8 (25.8) No. (%) | Pleural effusion (related TEAE) ([1]; Grade 1): 1 (3.2) No. (%) | Rash (related TEAE) ([1]; Grade 1): 2 (6.5) No. (%) | Vomiting (related TEAE) ([1]; Grade 1): 2 (6.5) No. (%) | Weight increase (related TEAE) ([1]; Grade 1): 17 (54.8) No. (%) | Abdominal distension (related TEAE) ([1]; Grade 2): 1 (3.2) No. (%) | Anemia (related TEAE) ([1]; Grade 2): 3 (9.7) No. (%) | Anorexia (related TEAE) ([1]; Grade 2): 0 No. (%) | At least 1 related TEAE ([1]; Grade 2): 11 (35.5) No. (%) | Chest discomfort (related TEAE) ([1]; Grade 2): 0 No. (%) | Constipation (related TEAE) ([1]; Grade 2): 0 No. (%) | Cough (related TEAE) ([1]; Grade 2): 1 (3.2) No. (%) | Dyspepsia (related TEAE) ([1]; Grade 2): 0 No. (%) | Dyspnea (related TEAE) ([1]; Grade 2): 0 No. (%) | Edema (related TEAE) ([1]; Grade 2): 0 No. (%) | Face edema (related TEAE) ([1]; Grade 2): 0 No. (%) | Fatigue (related TEAE) ([1]; Grade 2): 2 (6.5) No. (%) | Fluid retention (related TEAE) ([1]; Grade 2): 1 (3.2) No. (%) | Increased appetite (related TEAE) ([1]; Grade 2): 0 No. (%) | Insomnia (related TEAE) ([1]; Grade 2): 1 (3.2) No. (%) | Muscle spasms (related TEAE) ([1]; Grade 2): 1 (3.2) No. (%) | Myalgia (related TEAE) ([1]; Grade 2): 0 No. (%) | Nausea (related TEAE) ([1]; Grade 2): 1 (3.2) No. (%) | Peripheral edema (related TEAE) ([1]; Grade 2): 7 (22.6) No. (%) | Pleural effusion (related TEAE) ([1]; Grade 2): 1 (3.2) No. (%) | Rash (related TEAE) ([1]; Grade 2): 0 No. (%) | Vomiting (related TEAE) ([1]; Grade 2): 1 (3.2) No. (%) | Weight increase (related TEAE) ([1]; Grade 2): 0 No. (%) | Edema (related TEAE) [1, 2]: 2 (6.5) ^b No. (%) | Pleural effusion (related TEAE) [1, 2]: 1 (3.2) ^b No. (%) | Abdominal distension (related TEAE) ([1]; Grade 3): 0 No. (%) | Anemia (related TEAE) ([1]; Grade 3): 4 (12.9) No. (%) | Anorexia (related TEAE) ([1]; Grade 3): 0 No. (%) | At least 1 related TEAE ([1]; Grade 3): 6 (19.4) No. (%) | Chest discomfort (related TEAE) ([1]; Grade 3): 1 (3.2) No. (%) | Constipation (related TEAE) ([1]; Grade 3): 0 No. (%) | Cough (related TEAE) ([1]; Grade 3): 0 No. (%) | Dyspepsia (related TEAE) ([1]; Grade 3): 0 No. (%) | Dyspnea (related TEAE) ([1]; Grade 3): 1 (3.2) No. (%) | Face edema (related TEAE) ([1]; Grade 3): 0 No. (%) | Fatigue (related TEAE) ([1]; Grade 3): 2 (6.5) No. (%) | Fluid retention (related TEAE) ([1]; Grade 3): 0 No. (%) | Increased appetite (related TEAE) ([1]; Grade 3): 0 No. (%) | Insomnia (related TEAE) ([1]; Grade 3): 0 No. (%) | Muscle spasms (related TEAE) ([1]; Grade 3): 0 No. (%) | Myalgia (related TEAE) ([1]; Grade 3): 0 No. (%) | Nausea (related TEAE) ([1]; Grade 3): 0 No. (%) | Peripheral edema (related TEAE) ([1]; Grade 3): 1 (3.2) No. (%) | Rash (related TEAE) ([1]; Grade 3): 0 No. (%) | Vomiting (related TEAE) ([1]; Grade 3): 0 No. (%) | Weight increase (related TEAE) ([1]; Grade 3): 0 No. (%) | Abdominal distension (related TEAE) ([1]; Grade 4): 0 No. (%) | Anemia (related TEAE) ([1]; Grade 4): 0 No. (%) | Anorexia (related TEAE) ([1]; Grade 4): 0 No. (%) | At least 1 related TEAE ([1]; Grade 4): 1 (3.2) ^a No. (%) | Chest discomfort (related TEAE) ([1]; Grade 4): 0 No. (%) | Constipation (related TEAE) ([1]; Grade 4): 0 No. (%) | Cough (related TEAE) ([1]; Grade 4): 0 No. (%) | Dyspepsia (related TEAE) ([1]; Grade 4): 0 No. (%) | Dyspnea (related TEAE) ([1]; Grade 4): 0 No. (%) | Edema (related TEAE) ([1]; Grade 4): 0 No. (%) | Face edema (related TEAE) ([1]; Grade 4): 0 No. (%) | Fatigue (related TEAE) ([1]; Grade 4): 0 No. (%) | Fluid retention (related TEAE) ([1]; Grade 4): 0 No. (%) | Increased appetite (related TEAE) ([1]; Grade 4): 0 No. (%) | Insomnia (related TEAE) ([1]; Grade 4): 0 No. (%) | Muscle spasms (related TEAE) ([1]; Grade 4): 0 No. (%) | Myalgia (related TEAE) ([1]; Grade 4): 0 No. (%) | Nausea (related TEAE) ([1]; Grade 4): 0 No. (%) | Peripheral edema (related TEAE) ([1]; Grade 4): 0 No. (%) | Pleural effusion (related TEAE) ([1]; Grade 4): 0 No. (%) | Rash (related TEAE) ([1]; Grade 4): 0 No. (%) | Vomiting (related TEAE) ([1]; Grade 4): 0 No. (%) | Weight increase (related TEAE) ([1]; Grade 4): 0 No. (%) | Abdominal distension (related TEAE) ([1]; Overall): 2 (6.5) No. (%) | Anemia (related TEAE) ([1]; Overall): 12 (38.7) No. (%) | Anorexia (related TEAE) ([1]; Overall): 3 (9.7) No. (%) | At least 1 related TEAE ([1]; Overall): 31 (100) No. (%) | Chest discomfort (related TEAE) ([1]; Overall): 2 (6.5) No. (%) | Constipation (related TEAE) ([1]; Overall): 2 (6.5) No. (%) | Cough (related TEAE) ([1]; Overall): 4 (12.9) No. (%) | Dyspepsia (related TEAE) ([1]; Overall): 2 (6.5) No. (%) | Dyspnea (related TEAE) ([1]; Overall): 5 (16.1) No. (%) | Edema (related TEAE) ([1]; Overall): 3 (9.7) No. (%) | Face edema (related TEAE) ([1]; Overall): 2 (6.5) No. (%) | Fatigue (related TEAE) ([1]; Overall): 14 (45.2) No. (%) | Fluid retention (related TEAE) ([1]; Overall): 3 (9.7) No. (%) | Increased appetite (related TEAE) ([1]; Overall): 3 (9.7) No. (%) | Insomnia (related TEAE) ([1]; Overall): 2 (6.5) No. (%) | Muscle spasms (related TEAE) ([1]; Overall): 2 (6.5) No. (%) | Myalgia (related TEAE) ([1]; Overall): 2 (6.5) No. (%) | Nausea (related TEAE) ([1]; Overall): 6 (19.4) No. (%) | Peripheral edema (related TEAE) ([1]; Overall): 16 (51.6) No. (%) | Pleural effusion (related TEAE) ([1]; Overall): 3 (9.7) No. (%) | Rash (related TEAE) ([1]; Overall): 2 (6.5) No. (%) | Vomiting (related TEAE) ([1]; Overall): 3 (9.7) No. (%) | Weight increase (related TEAE) ([1]; Overall): 17 (54.8) No. (%) | Serum cholesterol, peak [1, 3]: 515 mg/dL | Serum triglycerides, peak [1, 3]: 4525 mg/dL | Cardiac dysfunction (serial electrocardiograms and echocardiograms) ([1]; all dose levels): did not reveal any evidence of cardiac dysfunction; also recorded: no measurable cardiotoxicity | Patients with anemia (treatment-related AE) ([1]; all dose levels): 38.7% | Patients with fatigue (treatment-related AE) ([1]; all dose levels): 45.2% | Patients with peripheral edema ([1]; all dose levels): 51.6% | Patients with weight increase (treatment-related AE) ([1]; all dose levels): 54.8% | Maximum tolerated dose (MTD) ([1]; doses 0.10 to 1.15 mg PO twice daily): not reached | Patients with grade 4 TEAEs ([1]; regardless of attribution (bronchospasm; hypercholesterolemia and hypertriglyceridemia)): Two patients | Potency relative to rosiglitazone (PPAR response element; [4]): at least 50 × | Potency relative to troglitazone (PPAR response element; [4]): ≥ 500 × | PPAR subtype selectivity of transcription activation (PPAR response element; background statement, no reference given): selectively activates PPARγ-mediated transcription with little effect on other PPAR subtypes
